From patent publication US20230295574A1, “GINGIVAL TISSUES AND METHODS OF PREPARATION THEREOF” (National University of Singapore, priority 2020, published 2023) come the findings set out here.

Structures are written as SMILES.

The subject of data set [1] is Gingiva-FT gingival tissue equivalents. The data set is described as follows: Mucosal irritation and barrier integrity of mouthwashes on intact Gingiva-FT. As to the method: To evaluate the use of 3D cultured gingival tissue equivalents of the present invention for mucosal irritation, we investigated the impact of 2 commercially available mouthwashes. To mimic the actual use case scenario, gingival tissue equivalents (surface area 0.78 cm^2) were exposed to 130 μl alcohol-free (Listerine® Gum care Zero) or alcohol-based (Listerine® Cool Mint) mouthwashes for 30 secs, washed, and cultured. After 10 hours, the tissues were re-exposed to the respective mouthwash, washed and cultured for 24 hours. Phosphate buffered saline (PBS) and 1% sodium lauryl sulphate was used as negative and positive controls respectively. Based on the OECD TG439 guidelines, 50% cellular viability was set as threshold for classification of mucosal irritants.

Data set [2] relates to lamina propria equivalents. The data set is described as follows: Mucosal irritation of mouthwashes on lamina propria equivalents (oral ulcer model). How it is done:
Oral ulcers are one of the most common disturbances in the oral cavity. Since, the oral ulcers is devoid of the overlying epithelium, the barrier function provided by the epithelium is lost. […] To evaluate the use of 3D cultured lamina propria equivalents as a model of oral ulcers, we investigated the impact of 2 commercially available mouthwashes for mucosal irritation. To mimic the actual use case scenario, gingival tissue equivalents (surface area 0.78 cm^2) were exposed to 130 μl alcohol-free (Listerine® Gum care Zero) or alcohol-based (Listerine® Cool Mint) mouthwashes for 30 secs, washed, and cultured. After 10 hours, the tissues were re-exposed to the respective mouthwash, washed and cultured for 24 hours. Phosphate buffered saline (PBS) and 1% sodium lauryl sulphate was used as negative and positive controls respectively. Based on the OECD TG439 guidelines, 50% cellular viability was set as threshold for classification of mucosal irritation.

Data set [3] concerns Gingiva-FT gingival tissue equivalents. The data set is described as follows: Mucosal corrosion on Gingiva-FT (OECD TG431). The class given is cell-based, human. To be noted: for tissue disruption: Gingiva-FT. As to the method:
Some excipients used to incorporate the actives and formulate oral/dental care products and pharmaceuticals, have the potential to cause mucosal corrosion similar to caustic substances like acids and bases. […] Based on the OECD TG431 guidelines, 50% and 15% cellular viability was set as thresholds for 3 min and 60 min exposures respectively.

[4] abbreviates: exposure 30 secs twice, 24 hours culture.
Setting [5] is: lamina propria equivalents, exposure 30 secs twice, 24 hours culture.

As to `CCCCCCCCCCCCOS(=O)(=O)[O-].[Na+]` [1% sodium lauryl sulphate, sodium lauryl sulphate], in data set [1] (setting [4]), the “TUNEL staining (apoptosis/cell death)” value is given as “TUNEL positivity”, the “cytotoxicity (LDH assay)” value is given as “markedly increased cytotoxicity” and the “tissue / epithelial disruption” value is “significant tissue disruption”. Moreover, the cellular viability in data set [1] (exposure 30 secs, re-exposed after 10 hours, cultured 24 hours, 50% threshold (OECD TG439)) was less than 50%. Further, the cellular viability in data set [2] (lamina propria equivalents (ulcer model), exposure 30 secs, re-exposed after 10 hours, cultured 24 hours, 50% threshold (OECD TG439)) is on record as less than 50%. Further, in data set [2] (setting [5]), the “TUNEL staining (apoptosis/cell death)” value was “TUNEL positivity”, the “cytotoxicity (LDH assay)” value is given as “markedly increased cytotoxicity” and the tissue disruption entry is “significant tissue disruption”.
On to `O=P(O)(O)O` [37% phosphoric acid, phosphoric acid], for which the tissue disruption entry is “tissue disruption” in data set [3] (3 min exposure) and “almost complete lysis of the tissues” in data set [3] (60 min exposure). For the same compound, the mucosal corrosion classification entry in data set [3] (OECD TG431) is given as “corrosive (category 1A)”.
